Laboratory results taken from ChEMBL document CHEMBL3808308, “Synergistic potentiation of (-)-lomaiviticin A cytotoxicity by the ATR inhibitor VE-821” (Bioorg Med Chem Lett, 2016).

Assays:
[1] = tested on: K562; experiment: Potentiation of 0.0050 uM (-)-lomaiviticin A-induced cytotoxicity against human K562 cells assessed as fraction ratio affected at 5 uM after 48 hrs by cell titer-glo luminescence assay; type: functional
[2] = tested on: K562; experiment: Potentiation of 0.0050 uM (-)-lomaiviticin A-induced cytotoxicity against human K562 cells assessed as combination index at 5 uM after 48 hrs by cell titer-glo luminescence assay; type: functional
[3] = tested on: K562; experiment: Potentiation of 2.5x10'-4 uM (-)-lomaiviticin A-induced cytotoxicity against human K562 cells assessed as combination index at 5 uM after 24 hrs by cell titer-glo luminescence assay; type: functional
[4] = tested on: K562; experiment: Potentiation of 2.5x10'-5 uM (-)-lomaiviticin A-induced cytotoxicity against human K562 cells assessed as combination index at 5 uM after 48 hrs by cell titer-glo luminescence assay; type: functional
[5] = tested on: K562; experiment: Potentiation of 5x10'-5 uM (-)-lomaiviticin A-induced cytotoxicity against human K562 cells assessed as combination index at 5 uM after 48 hrs by cell titer-glo luminescence assay; type: functional
[6] = tested on: K562; experiment: Potentiation of 2.5x10'-4 uM (-)-lomaiviticin A-induced cytotoxicity against human K562 cells assessed as combination index at 5 uM after 48 hrs by cell titer-glo luminescence assay; type: functional
[7] = tested on: K562; experiment: Potentiation of 0.0025 uM (-)-lomaiviticin A-induced cytotoxicity against human K562 cells assessed as fraction ratio affected at 5 uM after 48 hrs by cell titer-glo luminescence assay; type: functional
[8] = tested on: K562; experiment: Potentiation of 2.5x10'-5 uM (-)-lomaiviticin A-induced cytotoxicity against human K562 cells assessed as combination index at 5 uM after 24 hrs by cell titer-glo luminescence assay; type: functional
[9] = tested on: K562; experiment: Potentiation of 5x10'-4 uM (-)-lomaiviticin A-induced cytotoxicity against human K562 cells assessed as combination index at 5 uM after 24 hrs by cell titer-glo luminescence assay; type: functional
[10] = tested on: K562; experiment: Potentiation of 0.0025 uM (-)-lomaiviticin A-induced cytotoxicity against human K562 cells assessed as combination index at 5 uM after 24 hrs by cell titer-glo luminescence assay; type: functional
[11] = tested on: K562; experiment: Potentiation of 2.5x10'-4 uM (-)-lomaiviticin A-induced cytotoxicity against human K562 cells assessed as fraction ratio affected at 5 uM after 48 hrs by cell titer-glo luminescence assay; type: functional
[12] = tested on: K562; experiment: Potentiation of 2.5x10'-5 uM (-)-lomaiviticin A-induced cytotoxicity against human K562 cells assessed as fraction ratio affected at 5 uM after 48 hrs by cell titer-glo luminescence assay; type: functional
[13] = tested on: K562; experiment: Potentiation of 5x10'-4 uM (-)-lomaiviticin A-induced cytotoxicity against human K562 cells assessed as combination index at 5 uM after 48 hrs by cell titer-glo luminescence assay; type: functional
[14] = tested on: K562; experiment: Potentiation of 0.0050 uM (-)-lomaiviticin A-induced cytotoxicity against human K562 cells assessed as fraction ratio affected at 5 uM after 24 hrs by cell titer-glo luminescence assay; type: functional
[15] = tested on: K562; experiment: Potentiation of 5x10'-4 uM (-)-lomaiviticin A-induced cytotoxicity against human K562 cells assessed as fraction ratio affected at 5 uM after 48 hrs by cell titer-glo luminescence assay; type: functional
[16] = tested on: K562; experiment: Cytotoxicity against human K562 cells assessed as decrease in cell viability up to 2.5 to 10 uM after 24 to 48 hrs by cell titer-glo luminescence assay; type: cell-based
[17] = tested on: K562; experiment: Potentiation of 0.0050 uM (-)-lomaiviticin A-induced cytotoxicity against human K562 cells assessed as combination index at 5 uM after 24 hrs by cell titer-glo luminescence assay; type: functional
[18] = tested on: K562; experiment: Potentiation of 5x10'-5 uM (-)-lomaiviticin A-induced cytotoxicity against human K562 cells assessed as combination index at 5 uM after 24 hrs by cell titer-glo luminescence assay; type: functional
[19] = tested on: K562; experiment: Potentiation of 0.0025 uM (-)-lomaiviticin A-induced cytotoxicity against human K562 cells assessed as combination index at 5 uM after 48 hrs by cell titer-glo luminescence assay; type: functional
[20] = tested on: K562; experiment: Potentiation of 0.125 nM (-)-lomaiviticin A-induced cytotoxicity against human K562 cells assessed as fraction ratio affected at 0.025 uM after 48 hrs by cell titer-glo luminescence assay; type: functional
[21] = tested on: K562; experiment: Potentiation of 2.5 nM (-)-lomaiviticin A-induced cytotoxicity against human K562 cells assessed as fraction ratio affected at 0.5 uM after 48 hrs by cell titer-glo luminescence assay; type: functional
[22] = tested on: K562; experiment: Potentiation of 0.025 nM (-)-lomaiviticin A-induced cytotoxicity against human K562 cells assessed as combination index at 0.005 uM after 48 hrs by cell titer-glo luminescence assay; type: functional
[23] = tested on: K562; experiment: Potentiation of 0.25 nM (-)-lomaiviticin A-induced cytotoxicity against human K562 cells assessed as fraction ratio affected at 0.05 uM after 48 hrs by cell titer-glo luminescence assay; type: functional
[24] = tested on: K562; experiment: Potentiation of 1.25 nM (-)-lomaiviticin A-induced cytotoxicity against human K562 cells assessed as fraction ratio affected at 0.25 uM after 48 hrs by cell titer-glo luminescence assay; type: functional
[25] = tested on: K562; experiment: Potentiation of 1.25 nM (-)-lomaiviticin A-induced cytotoxicity against human K562 cells assessed as combination index at 0.25 uM after 48 hrs by cell titer-glo luminescence assay; type: functional
[26] = tested on: K562; experiment: Potentiation of 7 nM (-)-lomaiviticin A-induced cytotoxicity against human K562 cells assessed as combination index at 1.4 uM after 48 hrs by cell titer-glo luminescence assay; type: functional
[27] = tested on: K562; experiment: Cytotoxicity against human K562 cells assessed as decrease in cell viability after 24 to 48 hrs by cell titer-glo luminescence assay; type: cell-based
[28] = Cytotoxicity against human K562 cells assessed as decrease in cell viability after 48 hrs by cell titer-glo luminescence assay; type: cell-based; settings: read-out: ED50
[29] = tested on: K562; experiment: Potentiation of 0.025 nM (-)-lomaiviticin A-induced cytotoxicity against human K562 cells assessed as fraction ratio affected at 0.005 uM after 48 hrs by cell titer-glo luminescence assay; type: functional
[30] = tested on: K562; experiment: Potentiation of 0.125 nM (-)-lomaiviticin A-induced cytotoxicity against human K562 cells assessed as combination index at 0.025 uM after 48 hrs by cell titer-glo luminescence assay; type: functional
[31] = tested on: K562; experiment: Potentiation of 7 nM (-)-lomaiviticin A-induced cytotoxicity against human K562 cells assessed as fraction ratio affected at 1.4 uM after 48 hrs by cell titer-glo luminescence assay; type: functional
[32] = tested on: K562; experiment: Potentiation of 0.25 nM (-)-lomaiviticin A-induced cytotoxicity against human K562 cells assessed as combination index at 0.05 uM after 48 hrs by cell titer-glo luminescence assay; type: functional
[33] = tested on: K562; experiment: Potentiation of (-)-lomaiviticin A-induced cytotoxicity against human K562 cells assessed as (-)-lomaiviticin A ED50 at compound to (-)-lomaiviticin A ratio of 200:1 after 48 hrs by cell titer-glo luminescence assay (reference value: 0.23776 nM); type: functional; settings: K562, 48 h, read-out: ED50 (the source's name)
[34] = tested on: K562; experiment: Potentiation of 2.5 nM (-)-lomaiviticin A-induced cytotoxicity against human K562 cells assessed as combination index at 0.5 uM after 48 hrs by cell titer-glo luminescence assay; type: functional

What does the source list for `O=C(c1cc(Cc2n[nH]c(=O)c3ccccc23)ccc1F)N1CCN(C(=O)C2CC2)CC1` [OLAPARIB]?
Ratio [1]: 0.557; CI [2]: 2.076; CI [3]: 29.7935; CI [4]: 0.138; CI [5]: 29.2295; CI [6]: 0.2699; Ratio [7]: 0.3508; CI [8]: 0.182; CI [9]: 31.4921; CI [10]: 45.0812; Ratio [11]: 0.02866; Ratio [12]: 0.00109; CI [13]: 0.358; Ratio [14]: 0.03638; Ratio [15]: 0.1238; Activity [16]: Non-toxic; CI [17]: 1.234; CI [18]: 28.4346; CI [19]: 1.277

For `Cn1c(=O)n(-c2ccc(C(C)(C)C#N)cc2)c2c3cc(-c4cnc5ccccc5c4)ccc3ncc21` [DACTOLISIB], which Ratio [20] is on record?
Its Ratio is 0.4369.

What about the Ratio [21] of the same compound?
The Ratio was 0.9739.

What about the CI [22] of the same compound?
Its CI is 8.288.

What about the Ratio [23] of the same compound?
The Ratio was 0.6128.

What about the Ratio [24] of the same compound?
Its Ratio is 0.9514.

And the CI [25]?
Its CI is 0.3514.

What about the CI [26] of the same compound?
Its CI is 0.3291.

What about the Activity [27] of the same compound?
The Activity was “Dose-dependent effect”.

And the CC50 at 48 h [28]?
Its CC50 at 48 h is 48.9 nM.

And the Ratio [29]?
Its Ratio is 0.2836.

What about the CI [30] of the same compound?
Its CI is 2.3513.

And the Ratio [31]?
Its Ratio is 0.9929.

And the CI [32]?
Its CI is 0.8101.

And the EC50 [33]?
The EC50 was 20.2 nM.

What about the CI [34] of the same compound?
The CI was 0.3901.
